Reference: PubChem BioAssay (NCI)
Where “and” joins values, the source holds several entries; their conditions need not be identical. Equal values may be shown once.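 The compound was tested at five concentrations on cells cultured in 96-well plates, with a 48-hour exposure period. GI50: concentration for 50% inhibition of growth. TGI marks complete inhibition of growth.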

What was measured:
Assay in all cases: NCI anticancer screen, dose series, 48 h
CAKI-1 renal = test system: CAKI-1 renal
K-562 leukemia = test system: K-562 leukemia
KM12 colon = test system: KM12 colon
NCI-H23 lung = test system: NCI-H23 lung
SK-MEL-2 melanoma = test system: SK-MEL-2 melanoma
SN12C renal = test system: SN12C renal
SNB-19 CNS = test system: SNB-19 CNS
SW-620 colon = test system: SW-620 colon
U251 CNS = test system: U251 CNS
PC-3 prostate = test system: PC-3 prostate

Compound | TGI (CAKI-1 renal) [µM] | TGI (K-562 leukemia) [µM] | TGI (KM12 colon) | GI50 (NCI-H23 lung) | TGI (NCI-H23 lung) | TGI (SK-MEL-2 melanoma) | GI50 (SN12C renal) | TGI (SN12C renal) | TGI (SNB-19 CNS) | TGI (SW-620 colon) | TGI (U251 CNS) | TGI (PC-3 prostate) | GI50 (KM12 colon) [µM] | GI50 (SK-MEL-2 melanoma) [µM] | GI50 (SNB-19 CNS) | GI50 (CAKI-1 renal) [µM] | GI50 (K-562 leukemia) [µM]
COc1cc(C2c3cc4c(cc3[C@@H](NCCN3CCOCC3)C3COC(=O)[C@H]23)OCO4)cc(OC)c1O (some centres undefined) | > 75 | > 75 | 12.1 µM and > 17.5 µM | 1.17 µM and 2.45 µM | 4.89 µM and 7.21 µM | 14.5 µM and 11.3 µM | 0.764 µM and 2.13 µM | 4.06 µM and 7.9 µM | > 75 µM | 18.5 µM and > 17.5 µM | 5.46 µM and 5.53 µM | – | – | – | – | – | –
COc1ccc(/C=C2\C[C@H]3[C@@H]4CCC5=CC(=O)CC[C@]5(C)[C@H]4CC[C@]3(C)C2=O)cc1OC | > 100 | > 100 | > 100 µM | – | > 100 µM | 43.6 µM | – | > 100 µM | > 100 µM | > 100 µM | – | > 100 µM | – | – | – | – | –
O=C(CC(Cl)=C(Cl)Cl)c1ccccc1 | 53.6 | 50 | > 100 µM | – | > 100 µM | > 100 µM | – | – | > 100 µM | > 100 µM | > 100 µM | > 100 µM | – | – | – | – | –
Nc1nc(-c2ccco2)cc(-c2ccc(CO)o2)n1 | – | > 100 | > 100 µM | – | > 100 µM | > 100 µM | – | > 100 µM | > 100 µM | > 100 µM | – | – | – | – | – | – | –
COc1ccc(-c2oc3c(OC)c(OC)cc(O)c3c(=O)c2OC)cc1 | > 100 | > 100 | > 100 µM | – | > 100 µM | > 100 µM | – | > 100 µM | > 100 µM | > 100 µM | > 100 µM | – | – | – | – | – | –
COc1ccc2nc3cccc([N+](=O)[O-])c3c(NCCCO)c2c1 | 0.0248 | – | 0.0146 µM and 0.0141 µM | 0.0117 µM | 0.05 µM | 0.00376 µM | 0.00174 µM | 0.0193 µM | 0.404 µM and 0.29 µM | 0.0323 µM | 0.108 µM and 0.16 µM | 0.0104 µM and 0.103 µM | 0.00183 | 0.00162 | 0.0159 µM and 0.0252 µM | – | –
CC(=O)Oc1ccc2c3c1O[C@H]1[C@H](O)CC[C@@]4(O)[C@@H](C2)N(C)CC[C@]314 | > 100 | – | > 100 µM | – | > 100 µM | > 100 µM | – | > 100 µM | > 100 µM | > 100 µM | > 100 µM | > 100 µM | – | – | – | – | –
CC(C)NC(=O)OCc1c2c(n(C)c1COC(=O)NC(C)C)-c1ccccc1CC2 | 25.5 | > 38.5 | 29 µM | – | 19.7 µM | 29.5 µM | – | 27.4 µM | 35.2 µM | 26 µM | 22.5 µM | – | – | – | – | – | –
O=C1c2ccccc2N2Oc3ccccc3C12c1ccccc1 (centres undefined) | – | > 100 | – | – | > 100 µM | – | – | > 100 µM | > 100 µM | > 100 µM | > 100 µM | – | – | – | – | – | –
O=C(NNC(=O)c1csc(NC(=S)NC2CCCCC2)n1)c1ccccc1 | 39.5 | – | 28.8 µM | – | 40.6 µM | 45 µM | – | 22.5 µM | – | 29.5 µM | 20.4 µM | 48.9 µM | – | – | – | – | –
CCOC1CC(C)N(C(=O)c2ccccc2)O1 (centres undefined) | – | > 100 | > 100 µM | – | > 100 µM | – | – | > 100 µM | > 100 µM | > 100 µM | > 100 µM | > 100 µM | – | – | – | – | –
COc1cc(OC)c2[nH]c3c(O)c(-c4c(C)cc5c([nH]c6c(OC)cc(OC)cc65)c4O)c(C)cc3c2c1 | 22.1 | 20.5 | 23.8 µM | 8.2 µM | 16.7 µM | 17.4 µM | – | – | – | 20.3 µM | 50 µM | 15.2 µM | – | – | – | 9.89 | 9.7
c1ccc2c(c1)OC(N1CCCC1)c1cnc(N3CCOCC3)nc1-2 (centres undefined) | > 100 | > 100 | > 100 µM | – | 30.9 µM | – | – | > 100 µM | > 100 µM | > 100 µM | > 100 µM | > 100 µM | – | – | – | – | –
COc1ccccc1C1c2cc3c(cc2OC(N2CCOCC2)C1C)OCO3 (centres undefined) | – | 24 | 39.6 µM | – | 58.7 µM | 37.3 µM | – | 38.1 µM | 37.8 µM | 50.3 µM | – | 71.9 µM | – | – | – | – | –
CCOc1cc2c(c(OCC)c1O)CC[C@@H]1[C@@H]2CC[C@]2(C)[C@@H](O)CC[C@@H]12 | 32.1 | 23.7 | 72.5 µM | – | 41.4 µM | 83.7 µM | 4.84 µM | 21.9 µM | > 100 µM | 41.7 µM | – | – | – | – | – | – | –
COC(=O)CCC(NC(=O)OC(C)(C)C)C(=O)NC(Cc1ccc(NC(=O)CCCC(C)=O)cc1)C(=O)NC(CCC(=O)OC)C(=O)OC (centres undefined) | > 100 | > 100 | > 100 µM | – | > 100 µM | > 100 µM | – | > 100 µM | > 100 µM | > 100 µM | – | > 100 µM | – | – | – | – | –
O=C(Nc1ccc(Cl)cc1)c1cc(S(=O)(=O)Nc2nnc3c(Cl)cc(C(F)(F)F)cn23)c(S)cc1Cl | > 100 | > 100 | > 100 µM | – | > 100 µM | 74.6 µM | – | > 100 µM | > 100 µM | – | > 100 µM | > 100 µM | – | – | – | – | –
